Data reported in patent publication US20140221475A1, “PLATINUM(IV) COMPLEXES AND PHARMACEUTICAL COMPOSITION CONTAINING THE SAME” (UNITECH CO., LTD., priority 2011, published 2014).

Legend:
Format in all cases: cell-based
[1] = system: human gastric cancer cell (KATO III); experiment: Cell proliferation inhibition, MTS method, human gastric cancer cell KATO III
Description: (§1) The test solution was prepared by dissolving the (compound 1) into the DMSO (dimethylsulfoxide) with the concentration of 8 mg/ml.
(§2) The test was implemented by using the human lung cancer cell (LU99), two kind of the human gastric cancer cell (KATO III, MKN-45), the human prostate cancer cell (DU145), the human malignant melanoma cell (G-361), the human bladder cancer cell (T24), two kind of the human lymphoma cell (U937, Jurkat E6.1) and the human leukemia cell (HL60) as the cancer cell.
(§3) These cells were suspended in the each culture medium that the serum of 10% was added, and were dispensed in 96-well plate. And then, these were cultured in 5% CO2 at 37 degrees centigrade during a night. The test solution was prepared in the culture medium to the various concentrations, and was dispensed into the plate that the cells were set preliminarily. And further, these were cultured in 5% CO2 at 37 degrees centigrade for three days.
(§4) The cell proliferation after the medicine addition was measured on the 3rd day from the 1st day after the medicine addition by the MTS method (Kit for cell proliferation test manufactured by Promega Company, Cell Titer 96 Aqueous One Solution Cell Proliferation Assay).
(§5) The inhibition rate (%) of the cell proliferation was obtained from the measured MTS value by the following formula.
(§6) Inhibition rate(%)=(1−MTS value of medicine addition group/MTS value of medicine non-addition group)×100
(§7) Because the value which was obtained by the above-mentioned formula represents the inhibition rate of the cell proliferation, the higher the numerical value is, the higher the medicine effect is. It is deemed that the one whose value is 50% or more has the medicine effect.
(§8) The (compound 2) was prepared as the test solution, and the inhibition rate of the cell proliferation was measured by the method similar to the embodiment 7.

[2] = system: human lymphoma cell (U937); experiment: Cell proliferation inhibition, MTS method, human lymphoma cell U937
Description: as §1, §2, §3, §4, §5, §6, §7, §8

[3] = system: human prostate cancer cell (DU145); experiment: Cell proliferation inhibition, MTS method, human prostate cancer cell DU145
Description: as §2, §3, §4, §5, §6, §7, §8

[4] = system: human bladder cancer cell (T24); experiment: Cell proliferation inhibition, MTS method, human bladder cancer cell T24
Description: as §2, §3, §4, §5, §6
Because the value which was obtained by the above-mentioned formula represents the inhibition rate of the cell proliferation, the higher the numerical value is, the higher the medicine effect is. It is deemed that the one whose value is 50% or more has the medicine effect. […]

[5] = system: human lung cancer cell (LU99); experiment: Cell proliferation inhibition, MTS method, human lung cancer cell LU99
Description: as §2, §3, §4, §5, §6, §7
(§9) The (compound 5) was prepared as the test solution, and the inhibition rate of the cell proliferation was measured by the method similar to the embodiment 7.
(§10) The (compound 6) was prepared as the test solution, and the inhibition rate of the cell proliferation was measured by the method similar to the embodiment 7.

[6] = system: human gastric cancer cell (MKN-45); experiment: Cell proliferation inhibition, MTS method, human gastric cancer cell MKN-45
Description: as §2, §3, §4, §5, §6, §7, §9, §10

[7] = system: human malignant melanoma cell (G-361); experiment: Cell proliferation inhibition, MTS method, human malignant melanoma cell G-361
Description: as §2, §3, §4, §5, §6, §7, §9, §10

[8] = system: human lymphoma cell (Jurkat E6.1); experiment: Cell proliferation inhibition, MTS method, human lymphoma cell Jurkat E6.1
Description: as §1, §2, §3, §4, §5, §6, §7

[9] = system: human leukemia cell (HL60); experiment: Cell proliferation inhibition, MTS method, human leukemia cell HL60
Description: as §1, §2, §3, §4, §5, §6, §7

SMILES | Inhibition rate of cell proliferation after 3 days from medicine addition ([1]; 5 μg/ml) | Inhibition rate of cell proliferation after 3 days from medicine addition ([1]; 10 μg/ml) | Inhibition rate of cell proliferation after 3 days from medicine addition ([1]; 20 μg/ml) | Inhibition rate of cell proliferation after 3 days from medicine addition ([2]; U937, 5 μg/ml) | Inhibition rate of cell proliferation after 3 days from medicine addition ([2]; U937, 10 μg/ml) | Inhibition rate of cell proliferation after 3 days from medicine addition ([2]; U937, 20 μg/ml) | Inhibition rate of cell proliferation after 3 days from medicine addition ([3]; DU145, 5 μg/ml) | Inhibition rate of cell proliferation after 3 days from medicine addition ([3]; DU145, 10 μg/ml) | Inhibition rate of cell proliferation after 3 days from medicine addition ([4]; T24, 5 μg/ml) | Inhibition rate of cell proliferation after 3 days from medicine addition ([4]; T24, 10 μg/ml) | Inhibition rate of cell proliferation after 3 days from medicine addition ([4]; T24, 20 μg/ml) | Inhibition rate of cell proliferation after 3 days from medicine addition ([5]; LU99, 5 μg/ml) | Inhibition rate of cell proliferation after 3 days from medicine addition ([5]; LU99, 10 μg/ml) | Inhibition rate of cell proliferation after 3 days from medicine addition ([5]; LU99, 20 μg/ml) | Inhibition rate of cell proliferation after 3 days from medicine addition ([6]; MKN-45, 5 μg/ml) | Inhibition rate of cell proliferation after 3 days from medicine addition ([6]; MKN-45, 10 μg/ml) | Inhibition rate of cell proliferation after 3 days from medicine addition ([6]; MKN-45, 20 μg/ml) | Inhibition rate of cell proliferation after 3 days from medicine addition ([7]; G-361, 5 μg/ml) | Inhibition rate of cell proliferation after 3 days from medicine addition ([7]; G-361, 10 μg/ml) | Inhibition rate of cell proliferation after 3 days from medicine addition ([7]; G-361, 20 μg/ml) | further results
NC1CCCC12CCCC2N.O=C1CC(=O)[O][Pt]([Cl])([Cl])[O]1 [Compound 2, Dichloro complexes (G) of the malonato((R,R,R)-spiro[4,4]nonane-1,6-diamine)platinum(IV)] | 78% | 90% | 82% | 100% | 100% | 100% | 51% | 76% | 52% | 77% | 87% |  |  |  |  |  |  |  |  |  | Inhibition rate of cell proliferation after 3 days from medicine addition ([3]; DU145, 20 μg/ml): 84%
NC1CCCC12CCCC2N.[Cl][Pt]([Cl])([Cl])[Cl] [Compound 6, tetrachloro((R,R,R)-spiro[4.4]nonane-1,6-diamine)platinum(IV)] |  |  |  |  |  |  |  |  | 78% | 81% | 81% | 89% | 96% | 98% | 88% | 80% | 76% | 89% | 96% | 98% | 
NC1CCCC12CCCC2N.[Cl][Pt]([Cl])([Cl])[Cl] [Compound 5, Tetrachloro((S,S,S)-spiro[4.4]nonane-1,6-diamine)platinum(IV)] |  |  |  |  |  |  |  |  | 79% | 86% | 80% | 65% | 84% | 91% | 90% | 93% | 87% | 83% | 95% | 98% | 
O=C1[O][Pt]2([NH][C@@H]3CCCC[C@H]3[NH]2)[O]C1=O [Oxaliplatin, oxaliplatin, reference compound] | 58% | 75% | 87% | 67% | 90% | 99% | 46% | 71% | 38% | 43% | 48% | 38% | 40% | 49% | 73% | 82% | 87% | 50% | 59% | 74% | Inhibition rate of cell proliferation after 3 days from medicine addition ([8]; Jurkat E6.1, 5 μg/ml): 90%; Inhibition rate of cell proliferation after 3 days from medicine addition ([8]; Jurkat E6.1, 10 μg/ml): 94%; Inhibition rate of cell proliferation after 3 days from medicine addition ([8]; Jurkat E6.1, 20 μg/ml): 97%; Inhibition rate of cell proliferation after 3 days from medicine addition ([9]; HL60, 5 μg/ml): 73%; Inhibition rate of cell proliferation after 3 days from medicine addition ([9]; HL60, 10 μg/ml): 86%; Inhibition rate of cell proliferation after 3 days from medicine addition ([9]; HL60, 20 μg/ml): 93%; Inhibition rate of cell proliferation after 3 days from medicine addition ([3]; DU145, 20 μg/ml): 81%
NC1CCCC12CCCC2N.O=C1CC(=O)[O][Pt]([Cl])([Cl])[O]1 [Compound 1, dichloromalonato((1S,5S,6S)-spiro[4.4]nonane-1,6-diamine)platinum(IV)] | 53% | 75% | 88% | 98% | 102% | 101% |  |  |  |  |  |  |  |  |  |  |  |  |  |  | Inhibition rate of cell proliferation after 3 days from medicine addition ([8]; Jurkat E6.1, 5 μg/ml): 92%; Inhibition rate of cell proliferation after 3 days from medicine addition ([8]; Jurkat E6.1, 10 μg/ml): 97%; Inhibition rate of cell proliferation after 3 days from medicine addition ([8]; Jurkat E6.1, 20 μg/ml): 100%; Inhibition rate of cell proliferation after 3 days from medicine addition ([9]; HL60, 5 μg/ml): 91%; Inhibition rate of cell proliferation after 3 days from medicine addition ([9]; HL60, 10 μg/ml): 97%; Inhibition rate of cell proliferation after 3 days from medicine addition ([9]; HL60, 20 μg/ml): 99%
